This passage reports melting point results from a melting point compilation (Tetko et al.).

By melting point is commonly meant the temperature, or range, at which the solid turns liquid.

In turn, `CCOc1cc(C(=S)N2CCCCC2)ccc1O` registered a melting point of 123 °C. The result for `Cc1nc(O)ccc1[N+](=O)[O-]` reads 235 °C.

With `CCOC(=O)N/C=C1/C(=O)C2(C)CCC1C2(C)C` (stereo not given), the melting point amounted to 162 °C. The molecule `CC(=O)C1(O)CCC2(C)C(CC(=O)C3C4CCC(=O)C4(C)CCC32)C1` (stereo not given) had a melting point of 185 to 191 °C. The result for `CC(O)c1ccc2ccccc2c1` (stereo not given) reads 74 °C. As to `O=C1c2ccccc2NC1(OC1(c2ccccn2)Nc2ccccc2C1=O)c1ccccn1` (stereo not given), the melting point worked out at 240 °C. The result for `COc1cc(CCl)cc(OC)c1` reads 46 to 48 °C; that for `COC(=O)c1ccccc1SCC(C)=O`, 60 to 61 °C; that for `OC1CCC(O)C1` (stereo not given), 40 °C. `Cc1noc(-c2ccc(C(=O)O)cc2)n1` returned a melting point of 267 to 269 °C. The result for `NC(=S)Nc1ccc(Cl)c(Cl)c1` reads 210 to 213 °C; that for `O=C(O)C=Cc1ccco1`, 143 °C. The result for `CCCCC(=O)CCCC` reads -3.8 °C; that for `C=CC=c1c(=CC)c(O)c(C2=NNC(=O)C2=CNc2ccncc2)c(=O)n1C`, 238 °C.

`Cc1cc(C)c(CC(=NOCC(=O)O)c2cc3ccccc3o2)c(C)c1` gave a melting point of 143 to 144 °C. The result for `Cc1ccc2[nH]c(C)cc2c1` reads 115 °C. The result for `Cc1c(O)ccc2c1OC(C)(C)CC2=O` reads 181 to 182 °C.

Molecule `NCCCCCCCCCCN` returned a melting point of 62.5 °C. The result for `O=C(/C=C/c1ccc(OCCCCl)cc1)c1ccccc1` reads 74 °C. The result for `O=C(O)c1cc(-c2ccco2)on1` reads 151 °C. The result for `CC(C)OC(=O)C1(S(=O)(=O)c2ccc([N+](=O)[O-])cc2)CCCCCC1` reads 83.5 °C; that for `Cc1ccc(O)c(C)n1`, 210 to 212 °C; that for `Brc1cccc(Br)n1`, 119 °C. Regarding `CCOC(=O)C12C(c3cc(Br)ccc3OP1(=O)OCC)C1(C(=O)OCC)C2c2cc(Br)ccc2OP1(=O)OCC` (stereo not given), the melting point was in the range of 272 to 274 °C. The result for `c1ccc(Nc2ccc3ccccc3c2)cc1` reads 108 °C; that for `CC1=C(C(=O)OCc2ccccc2)C(c2ccc(O)c(O)c2)NC(=O)N1` (stereo not given), 214 to 216 °C; that for `COc1ccc(Cn2cncn2)cc1`, 41.5 °C. In turn, `CN(C)c1nc(-c2cccs2)cc(C(F)(F)F)c1C#N` gave a melting point of 118 to 119 °C.

Molecule `CC(=O)c1sccc1Br` showed a melting point of 43 °C. The result for `O=C(NCCO[N+](=O)[O-])c1cccnc1` reads 92.5 °C; that for `OCC(F)(F)C(F)(F)C(F)(F)C(F)(F)C(F)(F)C(F)(F)C(F)(F)C(F)(F)CO`, 132 to 137 °C; that for `NC(CC(=O)O)c1ccc(Cl)cc1` (stereo not given), 243 to 245 °C. The result for `NC(=O)c1ccco1` reads 141 °C; that for `O=C(Cl)c1ccc(OC2CCOCC2)cc1`, 37.5 to 39 °C.

As to `COC(C(=O)O)c1ccccc1` (racemic), the melting point was in the range of 68 to 72 °C. The result for `Nc1cccc2c(N)cccc12` reads 190 °C. The result for `C=CCC1(CC(C)C)C(=O)NC(=O)NC1=O` reads 138 °C; that for `O=C(OCC(O)CO)c1ccccc1Nc1ccnc2cc(Cl)ccc12` (stereo not given), 170 °C. The result for `CCCCCCc1ccc2c(c1)CCC2` reads -34 °C. `NC(=O)C(=O)NC(c1ccccc1)C1(c2ccccc2)OCCO1` (stereo not given) gave a melting point of 203 °C. The result for `O=C(O)CSc1ncccn1` reads 200 to 203 °C; that for `O=C(O)C1CN(C(c2ccccc2)c2ccccc2)C1`, 178 to 180 °C; that for `OCc1cccc2[nH]ccc12`, 67 to 68 °C. The result for `O=C(CCl)c1ccc(C(=O)CCl)cc1` reads 153 °C; that for `Cc1cc2c(N)cccc2nn1`, 189 to 191 °C. The result for `Cc1cccc(O)c1[N+](=O)[O-]` reads 37 °C.

The molecule `Cn1nc(C(=O)O)c2ccccc21` came in with a melting point of 213 to 221 °C.

`O=C1OC(/C=C/c2ccccc2)Cc2ccccc21` (stereo not given) displayed a melting point of 84 °C. The result for `CC(C)Cc1ccc(C(=O)C(C)Br)cc1` (stereo not given) reads 63 to 64 °C.

Molecule `CC(=O)c1c(O)nc2cc3nc(O)c(C(C)=O)c(C)c3cc2c1C` returned a melting point of 310 °C. The result for `COC(=O)c1cc2cc(Br)ccc2s1` reads 110 to 111 °C; that for `COc1cc(CC#N)cc(OC)c1OC`, 77 °C. The result for `CC1(C)OC(C)(C(O)(c2ccccc2)c2ccccc2)CCC1C(=O)O` (stereo not given) reads 163 °C; that for `Cc1cc(C)c(CCl)cc1CCl`, 97 to 99 °C. The result for `Ic1ccc(N(c2ccc(I)cc2)c2ccc(I)cc2)cc1` reads 167 °C; that for `CN(C)C(=O)NC1CCCCCCC1`, 138 °C; that for `O=C(F)c1ccccc1`, -28 °C.

Turning to `O=Cc1ccc(N2CCOCC2)cc1`, the melting point was found to be 66 °C. The result for `Cc1ccc(C)c2c1-c1nc3ccccc3nc1-2` reads 195 °C; that for `FC(Cl)(Cl)C(Cl)Cl`, -82.6 °C; that for `COc1cccc2[nH]ccc12`, 70 °C.

Consider `CCOC(=O)c1c(C)[nH]c2ccc(O)cc12`, for which the melting point lay within 206 to 210 °C. The result for `CC(C)(C)N(NC(=O)c1ccccc1)C(=O)c1c(F)cccc1F` reads 194 °C. `CC(=O)N1C(=O)[C@@](O)(c2coc3ccccc23)c2ccccc21` returned a melting point of 110 °C. The result for `Cc1oc(C(C)(C)C)cc1C(=O)O` reads 92 °C; that for `Oc1ccc(C2(c3ccc(O)cc3)CC3CC2C2CCCC32)cc1` (stereo not given), 219 to 221 °C; that for `CC(=O)CCc1cc2c(cc1[N+](=O)[O-])CCC(C)N2` (stereo not given), 95 °C.

`C=CC(C)Cl` (stereo not given) came in with a melting point of -50 °C.

Take `COc1cccc(F)c1C=O`: the melting point worked out at 59 °C. The result for `O=C1C(=Cc2ccc(N(CCCl)CCCl)cc2)SC(=S)N1CN1CCOCC1` reads 164 °C; that for `CON=C(C)c1cccc(Oc2nc(OC)cc(OC)n2)c1C(=O)OC`, 107 °C; that for `N#Cc1cc(Cl)cc(Cl)c1N`, 120 to 126 °C. The result for `c1cc2c(cc1CN1CCNCC1)OCO2` reads 43 °C. The result for `O=C(O)CC(Br)C(=O)O` (racemic) reads 160 to 166 °C. Consider `C=Cc1scnc1C`, for which the melting point is -15 °C.

In turn, `Cc1nc(-c2ccc(Cl)cc2)sc1C(=O)Cl` showed a melting point of 180 to 183 °C. The result for `CC(C)(C)OC(=O)N1CCN(c2cc(C#N)ccn2)CC1` reads 127 to 129 °C; that for `N#Cc1c(-c2ccccc2)nn(-c2ccccc2)c1N`, 161 °C.

In turn, `COc1ccc(C(=O)C2=NN(c3ccccc3)C3C(=O)N(c4cc(Cl)ccc4Cl)C(=O)C23)cc1` (stereo not given) displayed a melting point of 240 °C. The result for `c1ccc2c(c1)CC1(OCCO1)c1ccccc1CC21OCCO1` reads 143 to 144 °C.
